Experimental data reported in patent publication US20220098203A1 (priority 2018, published 2022).
pIC50: −log10 of the molar value.

Columns and labels:
MAT2A homodimer = molecular target: T1, MAT2A homodimer (Homo sapiens, UniProt P31153); experiment: MAT2A biochemical assay (liberated phosphate, PiColorLock Gold); conditions: Table 5a; MAT2A biochemical assay; read-out: Enzyme Inhibition
T1 construct: inferred from the Ni sepharose purification and imidazole elution; made in house; host or cells: SF9 insect cells, recombinant baculovirus (Bac to Bac, pFASTBAC1)
T1 sequence (P31153 whole entry): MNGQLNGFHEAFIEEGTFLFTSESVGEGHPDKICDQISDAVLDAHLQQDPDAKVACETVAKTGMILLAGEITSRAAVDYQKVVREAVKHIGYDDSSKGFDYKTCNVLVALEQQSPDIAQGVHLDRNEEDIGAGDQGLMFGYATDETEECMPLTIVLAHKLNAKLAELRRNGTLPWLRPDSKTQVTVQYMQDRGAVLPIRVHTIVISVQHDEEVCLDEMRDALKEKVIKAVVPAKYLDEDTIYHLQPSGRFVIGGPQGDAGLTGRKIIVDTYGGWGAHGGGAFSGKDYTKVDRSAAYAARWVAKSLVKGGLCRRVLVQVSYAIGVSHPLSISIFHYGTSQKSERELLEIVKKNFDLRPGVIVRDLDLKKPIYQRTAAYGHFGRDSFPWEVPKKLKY
Outline: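 Readout is liberated phosphate (PiColorLock Gold), stoichiometric with SAM production, quantified against a potassium phosphate standard curve. Enzyme: recombinant MAT2A homodimer from Sf9, equilibrated 60 min at 25 °C with compound before 60 min reaction with substrate mix containing 500 μM ATP and 400 μM L-methionine.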

[1] = tested on: SAM in HCT116 MTAP-deleted cells; experiment: Cellular assay of target engagement (SAM), LC-MS/MS; assay type: cell-based, human; conditions: Homo sapiens, HCT-116, Table 5a, 72 h, read-out: Cell 72 h SAM Inhibition (MTAP −/−)
Outline: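 Target engagement was read as intracellular SAM, measured by LC-MS/MS with d3-SAM as internal standard in methanol/acetic acid extracts. These came from MTAP-deleted HCT116 colon carcinoma cells exposed to inhibitor for 72 hrs.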

HCT116 MTAP-/- = experiment: Inhibition of cellular proliferation (Cell Titer Glo), HCT116 MTAP-/-; assay type: cell-based, human; conditions: Homo sapiens, HCT-116, 96 h, Table 5a, 4 days, read-out: 4 Day Relative Growth Inhibition (MTAP −/−)
Outline: (§1)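 After 4 days of compound exposure at 37 °C, starting 24 h after plating, growth of the MTAP-wildtype and MTAP-deleted HCT116 pair was measured as ATP luminescence (CellTiter-Glo). The proliferation index was signal minus no-cell blank, divided by blank-corrected 0.2% DMSO control.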

HCT116 MTAP+/+ = experiment: Inhibition of cellular proliferation (Cell Titer Glo), HCT116 MTAP+/+; assay type: cell-based; conditions: Homo sapiens, HCT-116, 96 h, Table 5a, 4 days, read-out: 4 Day Relative Growth Inhibition (MTAP +/+)
Outline: as §1

SMILES	pIC50 (MAT2A homodimer)	pIC50 [1]	pIC50 (HCT116 MTAP-/-)	pIC50 (HCT116 MTAP+/+)
COc1ccc(N2Cc3cnc(NCC(F)(F)F)nc3N(c3ccc(CCO)cc3)C2=O)cc1 [Example 206, 1-(4-(2-hydroxyethyl)phenyl)-3-(4-methoxyphenyl)-7-((2,2,2-trifluoroethyl)amino)-3,4-dihydropyrimido[4,5-d]pyrimidin-2(1H)-one]	> 7.00	6.00 to 7.00	6.00 to 7.00	< 6.00
[2H]C([2H])([2H])Oc1ccc(N2C(=O)N(c3ccc4nn(C)cc4c3)Cc3ccc(OCC(F)F)nc32)cc1 [Example 136, 7-(2,2-difluoroethoxy)-1-(4-(methoxy-d3)phenyl)-3-(2-methyl-2H-indazol-5-yl)-3,4-dihydropyrido[2,3-d]pyrimidin-2(1H)-one]	> 7.00	> 7.00	> 7.00	6.00 to 7.00
COc1ccc(N2Cc3cnc(NCC(F)(F)F)nc3N(c3ccc(-c4nc[nH]n4)cc3)C2=O)cc1 [Example 193, 1-(4-(1H-1,2,4-triazol-3-yl)phenyl)-3-(4-methoxyphenyl)-7-((2,2,2-trifluoroethyl)amino)-3,4-dihydropyrimido[4,5-d]pyrimidin-2(1H)-one]	> 7.00	> 7.00	6.00 to 7.00	< 6.00
CCOc1cnc2c(n1)N(c1ccc(Cl)cc1)C(=O)N(c1ccc3nn(C)cc3c1)C2 [Example 413, 1-(4-chlorophenyl)-7-ethoxy-3-(2-methyl-2H-indazol-5-yl)-3,4-dihydropteridin-2(1H)-one]	> 7.00	> 7.00	6.00 to 7.00	< 6.00
Cn1cc2cc(N3Cc4ccc(NCC(F)(F)F)cc4N(c4ccc(OC(F)F)cc4)C3=O)ccc2n1 [Example 288]	> 7.00	6.00 to 7.00	6.00 to 7.00	< 6.00
COc1ccc(N2Cc3ncc(NCC(F)(F)F)nc3N(c3ccc(Cl)cc3)C2=O)cc1 [Example 416, 1-(4-chlorophenyl)-3-(4-methoxyphenyl)-7-((2,2,2-trifluoroethyl)amino)-3,4-dihydropteridin-2(1H)-one]	> 7.00	6.00 to 7.00	6.00 to 7.00	< 6.00
[2H]C([2H])([2H])Oc1ccc(N2C(=O)N(c3ccc4nn(C)cc4c3)Cc3ccc(OC(C)C)nc32)cc1 [Example 167, 7-isopropoxy-1-(4-methoxy-d3-phenyl)-3-(2-methyl-2H-indazol-5-yl)-3,4-dihydropyrido[2,3-d]pyrimidin-2(1H)-one]	> 7.00	> 7.00	> 7.00	< 6.00
Cn1cc2cc(N3Cc4cnc(NCC(F)(F)F)nc4N(c4ccc(-c5nc[nH]n5)cc4)C3=O)ccc2n1 [Example 220, 1-(4-(1H-1,2,4-triazol-3-yl)phenyl)-3-(2-methyl-2H-indazol-5-yl)-7-((2,2,2-trifluoroethyl)amino)-3,4-dihydropyrimido[4,5-d]pyrimidin-2(1H)-one]	> 7.00	6.00 to 7.00	6.00 to 7.00	< 6.00
[2H]C([2H])([2H])Oc1ccc(N2C(=O)N(c3ccc4nn(CC(F)(F)F)cc4c3)Cc3ccc(OCC(F)F)nc32)cc1 [Example 120, 7-(2,2-difluoroethoxy)-1-(4-methoxy-d3-phenyl)-3-(2-(2,2,2-trifluoroethyl)-2H-indazol-5-yl)-3,4-dihydropyrido[2,3-d]pyrimidin-2(1H)-one]	> 7.00	6.00 to 7.00	6.00 to 7.00	< 6.00
CCOc1ccc2c(n1)N(c1ccc(OC(F)F)cc1)C(=O)N(c1ccc(OC)cc1)C2 [Example 130, 1-(4-(difluoromethoxy)phenyl)-7-ethoxy-3-(4-methoxyphenyl)-3,4-dihydropyrido[2,3-d]pyrimidin-2(1H)-one]	> 7.00	6.00 to 7.00	6.00 to 7.00	< 6.00
COc1ccc(N2C(=O)N(c3ccc(=O)n(C)c3)Cc3cnc(NCC(F)(F)F)nc32)cc1 [Example 232, 1-(4-methoxyphenyl)-3-(1-methyl-6-oxo-1,6-dihydropyridin-3-yl)-7-((2,2,2-trifluoroethyl)amino)-3,4-dihydropyrimido[4,5-d]pyrimidin-2(1H)-one]	6.00 to 7.00	< 6.00	< 6.00	< 6.00
COc1ccc(N2Cc3cnc(NCC(F)F)nc3N(c3ccc(-c4nc[nH]n4)cc3)C2=O)cc1 [Example 188, 1-(4-(1H-1,2,4-triazol-3-yl)phenyl)-7-((2,2-difluoroethyl)amino)-3-(4-methoxyphenyl)-3,4-dihydropyrimido[4,5-d]pyrimidin-2(1H)-one]	> 7.00	6.00 to 7.00	6.00 to 7.00	< 6.00
CCOc1ccc2c(n1)N(c1ccc(OC(F)F)cc1)C(=O)N(c1ccc3nccn3c1)C2 [Example 101, 1-(4-(difluoromethoxy)phenyl)-7-ethoxy-3-(imidazo[1,2-a]pyridin-6-yl)-3,4-dihydropyrido[2,3-d]pyrimidin-2(1H)-one]	> 7.00	6.00 to 7.00	6.00 to 7.00	< 6.00
COC1CC=C(N2C(=O)N(c3ccc4nn(C)cc4c3)Cc3ccc(OCC(F)F)nc32)CC1 (stereo not shown) [Example 178, 7-(2,2-difluoroethoxy)-1-(4-methoxycyclohex-1-en-1-yl)-3-(2-methyl-2H-indazol-5-yl)-3,4-dihydropyrido[2,3-d]pyrimidin-2(1H)-one]	> 7.00	> 7.00	> 7.00	6.00 to 7.00

The remaining lines, values ahead:

pIC50 (MAT2A homodimer)	pIC50 [1]	pIC50 (HCT116 MTAP-/-)	pIC50 (HCT116 MTAP+/+)	SMILES
> 7.00	6.00 to 7.00	6.00 to 7.00	< 6.00	CCOc1ccc2c(n1)N(c1ccc(OC(F)F)cc1)C(=O)N(c1ccc3nncn3c1)C2 [Example 108, 3-([1,2,4]triazolo[4,3-a]pyridin-6-yl)-1-(4-(difluoromethoxy)phenyl)-7-ethoxy-3,4-dihydropyrido[2,3-d]pyrimidin-2(1H)-one]
> 7.00	6.00 to 7.00	6.00 to 7.00	< 6.00	COc1ccc(N2Cc3cnc(NCC(F)(F)F)nc3N(c3ccc(OC)cc3)C2=O)cc1 [Example 255, 1,3-bis(4-methoxyphenyl)-7-((2,2,2-trifluoroethyl)amino)-3,4-dihydropyrimido[4,5-d]pyrimidin-2(1H)-one]
> 7.00	> 7.00	> 7.00	< 6.00	[2H]C([2H])([2H])Oc1ccc(N2C(=O)N(c3ccc4nn(C)cc4c3)Cc3c(NC)nc(NCC(F)(F)F)nc32)cc1 [Example 432, 1-(4-(methoxy-d3)phenyl)-3-(2-methyl-2H-indazol-5-yl)-5-(methylamino)-7-((2,2,2-trifluoroethyl)amino)-3,4-dihydropyrimido[4,5-d]pyrimidin-2(1H)-one]
> 7.00	> 7.00	> 7.00	< 6.00	Cn1cc2cc(N3Cc4ncc(NCC(F)(F)F)cc4N(c4ccc(OC(F)F)cc4)C3=O)ccc2n1 [Example 428, 1-(4-(difluoromethoxy)phenyl)-3-(2-methyl-2H-indazol-5-yl)-7-((2,2,2-trifluoroethyl)amino)-3,4-dihydropyrido[3,2-d]pyrimidin-2(1H)-one]
> 7.00	> 7.00	> 7.00	< 6.00	Cc1nc2ccc(N3Cc4cnc(NCC(F)(F)F)nc4N(c4ccc(-c5nc[nH]n5)cc4)C3=O)cc2s1 [Example 217, 1-(4-(1H-1,2,4-triazol-3-yl)phenyl)-3-(2-methylbenzo[d]thiazol-6-yl)-7-((2,2,2-trifluoroethyl)amino)-3,4-dihydropyrimido[4,5-d]pyrimidin-2(1H)-one]
> 7.00	> 7.00	> 7.00	< 6.00	Cn1cnc2ccc(N3Cc4ccc(OCC(F)F)nc4N(c4ccc(OC(F)F)cc4)C3=O)cc21 [Example 140, 7-(2,2-difluoroethoxy)-1-(4-(difluoromethoxy)phenyl)-3-(1-methyl-1H-benzo[d]imidazol-6-yl)-3,4-dihydropyrido[2,3-d]pyrimidin-2(1H)-one]
> 7.00	> 7.00	> 7.00	6.00 to 7.00	[2H]C([2H])([2H])Oc1ccc(N2C(=O)N(c3ccc4nn(C)c(C)c4c3)Cc3ccc(OCC(F)F)nc32)cc1 [Example 105, 7-(2,2-difluoroethoxy)-3-(2,3-dimethyl-2H-indazol-5-yl)-1-(4-(methoxy-d3)phenyl)-3,4-dihydropyrido[2,3-d]pyrimidin-2(1H)-one]
> 7.00	6.00 to 7.00	6.00 to 7.00	< 6.00	[2H]C([2H])([2H])Oc1ccc(N2C(=O)N(c3ccc4nn(CCF)cc4c3)Cc3ccc(OCC(F)F)nc32)cc1 [Example 129, 7-(2,2-difluoroethoxy)-3-(2-(2-fluoroethyl)-2H-indazol-5-yl)-1-(4-methoxy-d3-phenyl)-3,4-dihydropyrido[2,3-d]pyrimidin7-2(1H)-one]
